Laboratory results published in patent publication US20080234327A1, “DIHYDROINDAZOLE COMPOUNDS USEFUL IN TREATING IRON DISORDERS” (XENON PHARMACEUTICALS INC., priority 2007, published 2008).
pIC50: −log10 of the molar value.

Experiments:
DMT1 = biological target: T1, DMT1 (Homo sapiens, UniProt P49281); assay: DMT1 activity assay (in vitro); type: cell-based; settings: inhibition of DMT1; read-out: IC50 Activity Level
T1 sequence (P49281 1-568): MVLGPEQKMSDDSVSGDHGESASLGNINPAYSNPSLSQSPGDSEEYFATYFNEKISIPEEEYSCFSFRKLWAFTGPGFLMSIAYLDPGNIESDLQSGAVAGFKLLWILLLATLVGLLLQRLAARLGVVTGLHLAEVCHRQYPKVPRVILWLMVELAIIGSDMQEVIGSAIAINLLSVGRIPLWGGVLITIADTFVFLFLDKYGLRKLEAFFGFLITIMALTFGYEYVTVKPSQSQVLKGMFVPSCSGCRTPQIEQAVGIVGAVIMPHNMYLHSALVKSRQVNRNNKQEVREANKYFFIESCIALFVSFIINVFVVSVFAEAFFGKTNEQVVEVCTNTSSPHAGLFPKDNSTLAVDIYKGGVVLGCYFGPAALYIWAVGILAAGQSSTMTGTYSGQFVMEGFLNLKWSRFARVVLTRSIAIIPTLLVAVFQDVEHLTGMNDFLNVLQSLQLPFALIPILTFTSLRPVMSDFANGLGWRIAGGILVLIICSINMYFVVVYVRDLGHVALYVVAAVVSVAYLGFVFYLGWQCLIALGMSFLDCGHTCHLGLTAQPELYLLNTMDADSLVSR
Text: One such protocol involves the screening of chemical agents for ability to modulate the activity of DMT1 thereby identifying it as a modulating agent. The in vitro activity of DMT1 can be measured in cell based assays by either directly measuring iron flux (using a radioactively labelled iron ^55Fe) or by measuring the fluorescence of a cell permeable iron fluorophore such as calcein. Stable cell lines overexpressing DMT1 are exposed to ^55Fe or loaded with calcein and then compound is applied. […] Alternatively, in another format electrophysiological techniques can be used to measure the current or iron or other metals traversing the cell membrane with DMT1 in a Xenopus oocyte or other cell based system (Gunshin et al., Nature, 1997, 31; 388(6641):482-8).
This example discloses various in vitro assay for testing and profiling test agents against DMT1 stably expressed in cells of either an endogenous or recombinant origin. These assays can use stable cell lines overexpressing DMT1 or intestinal cells and intestinal tissue expressing endogenous DMT1. DMT1 function could also be assessed in other cell types that express DMT1. Of greatest relevance would be the erythrocytes (e.g. K562 cells) or hepatocytes (e.g. […]).
DMT1 function can be assessed in a number of ways, including monitoring fluorescence changes of an iron fluorophore (e.g. calcein), monitoring uptake of radiolabelled iron (^55Fe or ^59Fe) (Picard et al., J. Biol. Chem., 2000, 275(46):35738-45 and Wetli et al., Chem. Biol. 2006 September; 13(9):965-72), or by assessing the current or transport of iron and other metals into the cells or tissues using standard electrophysiological techniques (Gunshin et al., Nature, 1997, 388(6641):482-8.).
Variations of these assays involve alterations of incubation times, the iron status of the cells and tissues (which may be modulated by chemical chelators or by harvesting from iron deficient animals), the metal cation detected and the pH of the reaction can generally be made by conventional techniques known to those skilled in the art.

SMILES | melting point [°C] | pIC50 (DMT1)
O=C(O)c1ccc2nc(-n3nc4c(c3O)-c3ccccc3CC4)sc2c1 [Example 4.6, 2-(1-hydroxy-4,5-dihydro-2H-benzo[e]indazol-2-yl)benzo[d]thiazole-6-carboxylic acid] | > 280 | –
N#Cc1ccc(-c2ccc3c(c2)CCc2nn(-c4ccccn4)c(O)c2-3)cc1 [Example 1.9, 4-(1-hydroxy-2-pyridin-2-yl-4,5-dihydro-2H-benzo[e]indazol-7-yl)-benzonitrile] | 274 to 275 | ≤ 6.00
O=[N+]([O-])c1ccc(-n2nc3c(c2O)-c2ccccc2CC3)nc1 [Example 1.13, 2-(5-nitropyridin-2-yl)-4,5-dihydro-2H-benzo[e]indazol-1-ol] | 226 to 227 | 6.00 to 7.00
Oc1c2c(nn1-c1ccccn1)CCc1cc(Br)ccc1-2 [Example 1.1, 7-bromo-2-pyridin-2-yl-4,5-dihydro-2H-benzo[e]indazol-1-ol] | 164 to 165 | –
Cc1ccc2nc(-n3nc4c(c3O)-c3ccccc3CC4)sc2c1 [Example 4.4, 2-(6-methylbenzo[d]thiazol-2-yl)-4,5-dihydro-2H-benzo[e]indazol-1-ol] | 218 to 219 | –
Oc1c2c(nn1-c1nc3ccc(F)cc3s1)CCc1ccccc1-2 [Example 4.3, 2-(6-fluorobenzo[d]thiazol-2-yl)-4,5-dihydro-2H-benzo[e]indazol-1-ol] | 246 to 247 | –
[O-][n+]1ccccc1-n1nc2c(c1O)-c1ccccc1CC2 [Example 3, 2-(1-hydroxy-4,5-dihydro-2H-benzo[e]indazol-2-yl)pyridine 1-oxide] | 155 to 156 | –
Oc1c2c(nn1-c1nc3ccccc3s1)CCc1ccccc1-2 [Example 4, 2-(benzo[d]thiazol-2-yl)-4,5-dihydro-2H-benzo[e]indazol-1-ol] | 234 to 235 | –
Oc1c2c(nn1-c1ccccn1)CCc1cc(-c3ccc4c(c3)OCO4)ccc1-2 [Example 1.8, 7-benzo[1,3]dioxol-5-yl-2-pyridin-2-yl-4,5-dihydro-2H-benzo[e]indazol-1-ol] | 205 to 206 | 6.00 to 7.00
N#Cc1ccc2c(c1)CCc1nn(-c3ccccn3)c(O)c1-2 [Example 1.4, 1-hydroxy-2-pyridin-2-yl-4,5-dihydro-2H-benzo[e]indazole-7-carbonitrile] | 232 to 233 | –
COc1ccc2c(c1)-c1c(nn(-c3ccccn3)c1O)CC2 [Example 1.3, 8-methoxy-2-pyridin-2-yl-4,5-dihydro-2H-benzo[e]indazol-1-ol] | 116 to 117 | ≤ 6.00
COc1ccc2c(c1)CCc1nn(-c3ccccn3)c(O)c1-2 [Example 1.2, 7-methoxy-2-pyridin-2-yl-4,5-dihydro-2H-benzo[e]indazol-1-ol] | 139 to 140 | –
COc1ccc2nc(-n3nc4c(c3O)-c3ccccc3CC4)sc2c1 [Example 4.2, 2-(6-methoxybenzo[d]thiazol-2-yl)-4,5-dihydro-2H-benzo[e]indazol-1-ol] | 204 to 205 | –
Oc1c2c(nn1-c1ccccn1)CCc1ccccc1-2 [Example 1, 2-pyridin-2-yl-4,5-dihydro-2H-benzo[e]indazol-1-ol] | 145 to 146 | –
CC(C)(C)c1csc(-n2nc3c(c2O)-c2ccccc2CC3)n1.Cl [Example 5, 2-(4-tert-butylthiazol-2-yl)-4,5-dihydro-2H-benzo[e]indazol-1-ol hydrochloride] | > 250 | ≤ 6.00
Oc1c2c(nn1-c1cc(C(F)(F)F)ccn1)CCc1ccccc1-2 [Example 1.11, 2-(4-(trifluoromethyl)pyridin-2-yl)-4,5-dihydro-2H-benzo[e]indazol-1-ol] | 161 to 162 | 6.00 to 7.00
Cc1ccc(-n2nc3c(c2O)-c2ccccc2CC3)nc1 [Example 2, 2-(5-methylpyridin-2-yl)-4,5-dihydro-2H-benzo[e]indazol-1-ol] | 156 to 157 | 6.00 to 7.00
Oc1c2c(nn1-c1ccc(C(F)(F)F)cn1)CCc1ccccc1-2 [Example 1.10, 2-(5-(trifluoromethyl)pyridin-2-yl)-4,5-dihydro-2H-benzo[e]indazol-1-ol] | 158 to 159 | ≤ 6.00
Cc1ccc(-c2ccc3c(c2)CCc2nn(-c4ccccn4)c(O)c2-3)cc1 [Example 1.6, 2-pyridin-2-yl-7-p-tolyl-4,5-dihydro-2H-benzo[e]indazol-1-ol] | 177 to 178 | –
COc1ccc(-c2ccc3c(c2)CCc2nn(-c4ccccn4)c(O)c2-3)cc1 [Example 1.7, 7-(4-methoxyphenyl)-2-pyridin-2-yl-4,5-dihydro-2H-benzo[e]indazol-1-ol] | 159 to 160 | –
COc1ccc2c(c1)CCc1nn(-c3nc4ccccc4s3)c(O)c1-2 [Example 4.1, 2-(benzo[d]thiazol-2-yl)-7-methoxy-4,5-dihydro-2H-benzo[e]indazol-1-ol] | 182 to 183 | 6.00 to 7.00
Oc1c2c(nn1-c1ncccc1C(F)(F)F)CCc1ccccc1-2 [Example 1.12, 2-(3-(trifluoromethyl)pyridin-2-yl)-4,5-dihydro-2H-benzo[e]indazol-1-ol] | 174 to 175 | ≤ 6.00
Oc1c2c(nn1-c1ccccn1)CCCc1ccccc1-2 [Example 7, 2-pyridin-2-yl-2,4,5,6-tetrahydro-2,3-diaza-benzo[e]azulen-1-ol] | 80 to 81 | 6.00 to 7.00
Oc1c2c(nn1-c1nc3ccccc3[nH]1)CCc1ccccc1-2 [Example 6, 2-(1H-benzo[d]imidazol-2-yl)-4,5-dihydro-2H-benzo[e]indazol-1-ol] | 205 to 206 | –
Cc1cccc2sc(-n3nc4c(c3O)-c3ccccc3CC4)nc12 [Example 4.5, 2-(4-methylbenzo[d]thiazol-2-yl)-4,5-dihydro-2H-benzo[e]indazol-1-ol] | 224 to 225 | –
